This is an account of results in patent US20250101052A1, “COMPOUND FOR EGFR KINASE INHIBITOR, COMPOSITION, AND USE THEREOF” (INNOVATION INSTITUTE FOR ARTIFICIAL INTELLIGENCE IN …, priority 2021, published 2025).

For one assay, the system named is A431 cells. Put plainly: A431 cell proliferation inhibition (SRB). The class given is cell-based. The settings on record: Homo sapiens, A-431, wild-type EGFR, 72 hours. On the procedure: A431 cell proliferation inhibition: The compounds of the present invention have good selectivity to wild-type EGFR
(§1) a) The medium was preheated in a 37° C. water bath.
(§2) b) The cryopreservation tube was taken from the liquid nitrogen tank, quickly placed in a 37° C. water bath, and melted completely within 1 minute.
(§3) c) The cell suspension was transferred to a 15 mL centrifuge tube containing a 10 mL medium and centrifuged at 1000 rpm for 4 minutes.
(§4) d) The supernatant was discarded, the cells were resuspended in a 1 mL medium and transferred to a […] culture dish containing a 10 mL medium, 20% serum and 50 ng/mL EGF were administered to the first-generation medium, and culture was conducted in a 37° C. and 5% CO2 incubator.
(§5) b) The cells in the culture dish were blown evenly with a 5 mL pipette, and 500 μL of the cells were pipetted out to be inoculated into a new […] culture dish and cultured in a 37° C. and 5% CO2 incubator.
(§6) a) The compound to be tested (10 mM stock solution) was diluted with 100% DMSO to 1 mM, and diluted with a culture solution in a 24-well plate to prepare of a working solution of 2 μM concentration.
(§7) b) The 2 μM working solution was diluted with a triple dilution method to obtain working solutions with approximate concentrations of 2 μM, 600 nM, 200 nM, 60 nM, and 20 nM.
(§8) a) The cells at the logarithmic growth phase were centrifuged at 1000 rpm for 4 minutes, resuspended with a medium (containing 10% serum and 50 ng/mL EGF), and counted.
(§9) b) The cells were inoculated into a 96-well plate with a cell density of 4000 cells/well, and placed in a 37° C. and 5% CO2 incubator for culture for 12 hours.
(§10) a) The prepared compound was added to a 96-well plate, with 100 μL per well. The final concentrations were 1 μM, 300 nM, 100 nM, 30 nM, 10 nM, and 0 nM, and the final concentration of DMSO was 0.2%. A medium served as a blank control.
(§11) b) The cells were placed in 37° C. and 5% CO2 incubator for culture for 72 hours.
(§12) (5) Cell Viability Testing
a) The cell supernatant was discarded, rinsed once with 1×PBS, and fixed with 10% trichloroacetic acid for 1 hour. The trichloroacetic acid was discarded, excess trichloroacetic acid was washed off with tap water, and the 96-well plate was dried in a 60° C. oven.
b) 70 μL of an SRB stain was added to each well of the dry 96-well plate for staining at a room temperature for 30 minutes. Excess SRB stain was washed off with 1% glacial acetic acid, and the 96-well plate was dried in a 60° C. oven.
c) SRB was dissolved with 100 μL of 10 mM Tris-base solution. The absorbance was detected at 540 nm ultraviolet absorption using the microplate reader. The data was analyzed.
(§13) The data was analyzed using GraphPad Prism 8.0 software to obtain a fitted curve of activity of the compounds. The IC50 of the compounds was fitted from nonlinear regression equation.

Assay [1] relates to BaF3-EGFR^L858R/T790M/C797S cells. Put plainly: BaF3 cell proliferation inhibition experiment (CCK-8). In kind it is cell-based. The settings on record: Ba/F3 EGFR-L858R, 72 hours.
Description: BaF3 cell proliferation inhibition experiment: The compounds of the present invention have excellent inhibitory activity against the proliferation of BaF3-EGFR^L858R/T790M/C797S cells
A. Cell line: BaF3 cells with stable overexpression of wild-type genes are named BaF3-EGFR^WT, and BaF3 cells with stable overexpression of EGFR^L858R/T790M/C797S EGFR^del19/T790M/C797S EGFR^L858R/C797S and EGFR^del19/C797S mutant genes are named BaF3-EGFR^L858R/T790M/C797S BaF3-EGFR^del19/T790M/C797S BaF3-EGFR^L858R/C797S and BaF3-EGFR^del19/C797S cells, respectively. Mediums:
as §1, §2, §3, §4, §5, §6, §7, §8, §9, §10, §11, §12
a) The 96-well cell culture plate was taken out, and 20 μL of a CCK-8 reagent (Cell Counting Kit-8, Topscience, Catalog No. C0005) was added in the dark.
b) Mixing well was conducted on a horizontal shaking table at a room temperature at 100 rpm for 5 minutes.
c) The culture plate was placed in a 37° C. constant-temperature incubator for incubation.
d) Starting from the addition of the CCK-8, the absorbance at 450 nm was read using the TECAN microplate reader at 1 hour, 2 hours, and 3 hours, respectively.
as §13

In assay [2] the target is EGFR^L858R/T790M/C797S kinase (Homo sapiens (Human), UniProt P00533, C797S/L858R/T790M). Put plainly: EGFR^L858R/T790M/C797S kinase inhibitory activity experiment. In kind it is biochemical. The settings on record: in vitro. On the procedure: EGFRL^858R/T790M/C797S kinase inhibitory activity experiment: The compounds of the present invention have excellent in-vitro inhibitory activity against EGFR^L858R/T790M/C797S kinase
Sequence of EGFR^L858R/T790M/C797S kinase (P00533 25-1210 T790M/C797S/L858R): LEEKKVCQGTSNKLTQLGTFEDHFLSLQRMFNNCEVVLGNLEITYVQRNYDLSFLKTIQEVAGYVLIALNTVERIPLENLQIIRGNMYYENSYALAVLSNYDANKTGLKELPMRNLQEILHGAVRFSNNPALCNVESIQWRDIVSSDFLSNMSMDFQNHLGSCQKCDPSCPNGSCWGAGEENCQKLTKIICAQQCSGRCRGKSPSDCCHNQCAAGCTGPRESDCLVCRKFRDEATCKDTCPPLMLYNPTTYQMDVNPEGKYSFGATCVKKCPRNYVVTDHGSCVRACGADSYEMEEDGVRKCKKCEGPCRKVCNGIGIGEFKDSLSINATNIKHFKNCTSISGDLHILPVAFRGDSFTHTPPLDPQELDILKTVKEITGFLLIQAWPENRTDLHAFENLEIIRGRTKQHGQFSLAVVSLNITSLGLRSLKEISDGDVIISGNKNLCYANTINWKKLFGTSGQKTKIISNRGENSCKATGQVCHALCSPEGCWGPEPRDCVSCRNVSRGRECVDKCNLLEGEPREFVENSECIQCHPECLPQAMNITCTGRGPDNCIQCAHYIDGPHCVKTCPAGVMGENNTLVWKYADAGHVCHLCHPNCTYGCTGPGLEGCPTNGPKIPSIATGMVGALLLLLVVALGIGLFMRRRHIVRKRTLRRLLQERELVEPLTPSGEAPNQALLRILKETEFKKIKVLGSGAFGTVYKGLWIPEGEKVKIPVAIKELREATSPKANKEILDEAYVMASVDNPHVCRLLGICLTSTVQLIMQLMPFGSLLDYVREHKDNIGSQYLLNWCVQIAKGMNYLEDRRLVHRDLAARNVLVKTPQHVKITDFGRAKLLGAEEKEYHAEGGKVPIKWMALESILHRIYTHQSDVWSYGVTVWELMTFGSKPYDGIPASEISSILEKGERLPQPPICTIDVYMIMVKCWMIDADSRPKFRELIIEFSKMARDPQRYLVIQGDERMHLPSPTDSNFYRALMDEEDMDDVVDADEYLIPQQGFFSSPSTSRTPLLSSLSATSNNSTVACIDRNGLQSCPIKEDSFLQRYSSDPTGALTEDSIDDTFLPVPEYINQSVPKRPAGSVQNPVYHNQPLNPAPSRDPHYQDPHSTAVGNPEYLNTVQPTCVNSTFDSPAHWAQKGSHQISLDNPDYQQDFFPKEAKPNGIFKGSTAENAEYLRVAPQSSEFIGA
• Centrifuge (manufacturer: Eppendorf, model: 5430) • Microplate reader (manufacturer: Perkin Elmer, model: Caliper EZ ReaderII) • Echo 550 (manufacturer: Labcyte, model: Echo 550) • Experimental Method • Compound preparation: • A 10 mM storage solution was prepared.
(1) 1×Kinase buffer was prepared.
(2) Preparation of concentration gradient of compound: The tested compound has a test concentration starting from 1 μM, diluted 10 times, with 10 concentrations, and subjected to single-well or multi-well detection. The compound was diluted to a 100% DMSO solution with a final concentration of 100 times in a 384 source plate. […] of the compound at a final concentration of 100 times was transferred to the target plate 384-well-plate using the pipette Echo 550.
(3) A kinase solution with a final concentration of 2.5 times was prepared using 1× Kinase buffer.
(4) 10 μL of the kinase solution with the final concentration of 2.5 times was added to a compound well and a positive control well, respectively; 10 μL of 1×Kinase buffer was added to a negative control well.
(5) Centrifugation was conducted at 1000 rpm for 30 seconds, and the reaction plate was shaken and mixed well, and incubated at a room temperature for 10 minutes.
(6) A mixed solution of ATP with a final concentration of 5/3 times and Kinase substrate 22 was prepared using 1×Kinase buffer.
(7) A mixed solution of 15 μL of ATP with a final concentration of 5/3 times and a substrate was added for initial reaction.
(8) The 384-well-plate was centrifuged at 1000 rpm for 30 seconds, shaken and mixed well, and incubated at a room temperature for 60 minutes.
(9) 30 μL of a termination detection solution was added to stop the kinase reaction. Centrifugation was conducted at 1000 rpm for 30 seconds. Shaking and mixing well were conducted.
(10) The conversion rate was read using Caliper EZ Reader.
where Conversion %_sample is the conversion rate reading of the sample; Conversion %_min: the average value of negative control wells, representing the conversion rate reading of wells without enzyme activity; Conversion %_max: the average value of positive control wells, representing the conversion rate reading of wells without compound inhibition; % Inhibition represents the inhibition rate.
Fitting of Dose-Response Curve
Using the log value of concentration as the X-axis and the percentage inhibition rate as the Y-axis, the dose-response curve was fitted using the log(inhibitor) vs. response —Variable slope of the analysis software GraphPad Prism 5 to obtain the IC50 value of each compound on enzyme activity.

As usually defined, the IC50 is the concentration needed to halve the response being measured. Low values mean inhibition by little substance, high ones a need for much substance. With `CCc1cc(Nc2ncc(Cl)c(Nc3ccccc3P(C)(C)=O)n2)c(OC)cc1N1CC2(CCN(C)CC2)C1` [Comparative Compound B, (2-((5-Chloro-2-((5-ethyl-2-methoxy-4-(7-methyl-2,7-diazaspiro[3.5]nonan-2-yl)phenyl)amino)pyrimidin-4-yl)amino)phenyl)dimethylphosphine oxide, reference compound], the half-maximal inhibitory concentration (IC50) with A431 cells was 280 nM; in assay [1], 251 nM; in assay [2], 2.3 nM.
On the same counts, the results for `COc1cc(N2CC3(CCN(C)CC3)C2)c(C)cc1Nc1ncc(Cl)c(Nc2cc(C)c(C)cc2P(C)(C)=O)n1` [Compound 5, (2-((5-Chloro-2-((2-methoxy-5-methyl-4-(7-methyl-2,7-diazaspiro[3.5]nonan-2-yl)phenyl)amino)pyrimidin-4-yl)amino)-4,5-dimethylphenyl)dimethylphosphine oxide] are greater than 500 nM, 42.3 nM and 11 nM.
For the compound `CCc1cc(Nc2ncc(Cl)c(Nc3cc(Cl)c(Cl)cc3P(C)(C)=O)n2)c(OC)cc1N1CCC2(CC1)CC(N(C)C)C2` [Compound 7, (4,5-Dichloro-2-((5-chloro-2-((4-(2-(dimethylamino)-7-azaspiro[3. 5]nonan-7-yl)-5-ethyl-2-methoxyphenyl)amino)pyrimidin-4-yl)amino)phenyl)dimethylphosphine oxide], the 50% inhibitory concentration (IC50) in the assay on A431 cells was greater than 500 nM; in assay [1], 49.9 nM; in assay [2], 0.98 nM.
On to `CCc1cc(Nc2ncc(Cl)c(Nc3cc(C(F)(F)F)ccc3P(C)(C)=O)n2)c(OC)cc1N1CCC2(CC1)CC(N(C)C)C2` [Compound 8, (2-((5-Chloro-2-((4-(2-(dimethylamino)-7-azaspiro[3.5]nonan-7-yl)-5-ethyl-2-methoxypheny 1)amino)pyrimidin-4-yl)amino)-4-(trifluoromethyl)phenyl)dimethylphosphine oxide], for which the IC50 in the assay with A431 cells is greater than 1000 nM; in assay [1], 261 nM; in assay [2], 29 nM.
For the compound `COc1cc(N2CCC3(CC2)CC(N(C)C)C3)c(Cl)cc1Nc1ncc(Cl)c(Nc2cc(C)c(C)cc2P(C)(C)=O)n1` [Compound 13, (2-((5-Chloro-2-((5-chloro-4-(2-(dimethylamino)-7-azaspiro[3.5]nonan-7-yl)-2-methoxyphenyl)amino)pyrimidin-4-yl)amino)-4,5-dimethylphenyl)dimethylphosphine oxide], the half-maximal inhibitory concentration (IC50) was greater than 500 nM in the assay on A431 cells, 38.1 nM in assay [1] and 0.89 nM in assay [2].
On the same counts, the results for `COc1cc(N2CCC3(CC2)CC(N(C)C)C3)c(F)cc1Nc1ncc(Cl)c(Nc2cc(C)c(C)cc2P(C)(C)=O)n1` [Compound 16, (2-((5-chloro-2-((4-(2-(dimethylamino)-7-azaspiro[3.5]nonan-7-yl)-5-fluoro-2-methoxypheny 1)amino)pyrimidin-4-yl)amino)-4,5-dimethylphenyl)dimethylphosphine oxide] are greater than 500 nM, 35.7 nM and 12 nM.
In assay [2], `COc1cc(N2CC3(CCN(CC(F)F)CC3)C2)c(Cl)cc1Nc1ncc(Cl)c(Nc2cc(C)c(C)cc2P(C)(C)=O)n1` [Compound 42] returned a half-inhibitory concentration (IC50) of 0.76 nM. That is a sub-nanomolar value.
The same measure, in the same setting: in the case of `COc1cc(N2CC3(CCC(CC#N)CC3)C2)c(Cl)cc1Nc1ncc(Cl)c(Nc2cc(C)c(C)cc2P(C)(C)=O)n1` [Compound 43, 2-(2-(2-chloro-4-((5-chloro-4-((2-(dimethylphosphoryl)-4,5-dimethylphenyl)amino)pyrimidin-2-yl)amino)-5-methoxyphenyl)-2-azaspiro[3.5]nonan-7-yl)acetonitrile] it was 25.2 nM; in that of `CCc1cc(Nc2ncc(Cl)c(Nc3cc(C)c(C)cc3P(C)(C)=O)n2)c(OC)cc1N1CC2(CCN(C)CC2)C1` [Compound 44], 0.48 nM.
As to `CCc1cc(Nc2ncc(Cl)c(Nc3cc(C)c(C)cc3P(C)(C)=O)n2)c(OC)cc1N1CC2(CCN(CC(F)F)CC2)C1` [Compound 45], the concentration for half-maximal inhibition (IC50) in assay [2] is 0.74 nM. Compared with the last compound, the IC50 is about 1.5-fold higher.
In assay [2], `CCc1cc(Nc2ncc(Cl)c(Nc3cccc(Cl)c3P(C)(C)=O)n2)c(OC)cc1N1CC2(CCN(C)CC2)C1` [Compound 46] came in with an IC50 of 0.63 nM.
The compound `CCc1cc(Nc2ncc(Cl)c(Nc3cccc(Cl)c3P(C)(C)=O)n2)c(OC)cc1N1CC2(CCN(CC)CC2)C1` [Compound 47] gave an IC50 in assay [2] of 0.78 nM.
In assay [2], `CCc1cc(Nc2ncc(Cl)c(Nc3ccc(C)c(C)c3P(C)(C)=O)n2)c(OC)cc1N1CCC2(CC1)CC(N1CC(C#N)C1)C2` [Compound 49, 1-(7-(4-((5-chloro-4-((2-(dimethylphosphoryl)-3,4-dimethylphenyl)amino)pyrimidin-2-yl)amino)-2-ethyl-5-methoxyphenyl)-7-azaspiro[3.5]nonan-2-yl)azetidine-3-carbonitrile] came in with an IC50 of 8.23 nM.
Still for that read-out and setting: under `CCc1cc(Nc2ncc(Cl)c(Nc3ccc(C)c(C)c3P(C)(C)=O)n2)c(OC)cc1N1CCC(N2CC3CC(C2)N3C)CC1` [Compound 53, (6-((5-Chloro-2-((5-ethyl-2-methoxy-4-(4-(6-methyl-3,6-diazadicyclo[3.1.1]heptane-3-yl)piperidin-1-yl)phenyl)amino)pyrimidin-4-yl)amino)-2,3-dimethylphenyl)dimethylphosphine oxide] stands 0.269 nM.
